ChEMBL document CHEMBL3991601, “The target landscape of clinical kinase drugs” (Science, 2017)
Calls of active or inactive are those of the source. Rule as the data show it, for most assays here: actives have a measured Kd and inactives only a lower limit.

Assays:
[1] = biological target: T1, Long-chain-fatty-acid--CoA ligase 5 (Homo sapiens, UniProt Q9ULC5)
T1 sequence (Q9ULC5 whole entry): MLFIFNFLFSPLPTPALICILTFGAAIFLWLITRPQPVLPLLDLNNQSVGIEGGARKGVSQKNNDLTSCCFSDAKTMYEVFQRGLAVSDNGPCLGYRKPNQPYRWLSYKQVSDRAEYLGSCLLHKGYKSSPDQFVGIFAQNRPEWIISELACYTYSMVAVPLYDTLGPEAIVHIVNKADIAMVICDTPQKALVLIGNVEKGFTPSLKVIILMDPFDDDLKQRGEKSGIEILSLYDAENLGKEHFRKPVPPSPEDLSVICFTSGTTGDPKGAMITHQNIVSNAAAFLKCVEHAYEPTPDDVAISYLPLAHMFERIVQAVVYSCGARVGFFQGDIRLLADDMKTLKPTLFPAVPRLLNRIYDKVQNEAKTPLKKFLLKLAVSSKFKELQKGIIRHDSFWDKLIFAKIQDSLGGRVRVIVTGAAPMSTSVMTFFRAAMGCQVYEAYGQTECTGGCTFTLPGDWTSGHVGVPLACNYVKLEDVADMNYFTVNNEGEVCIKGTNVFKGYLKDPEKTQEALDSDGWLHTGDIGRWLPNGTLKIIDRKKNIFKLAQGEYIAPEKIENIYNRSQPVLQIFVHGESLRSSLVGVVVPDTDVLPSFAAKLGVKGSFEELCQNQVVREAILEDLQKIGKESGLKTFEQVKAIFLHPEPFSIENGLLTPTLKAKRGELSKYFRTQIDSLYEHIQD

[2] = biological target: T2, Cysteine--tRNA ligase, cytoplasmic (Homo sapiens, UniProt P49589)
T2 sequence (P49589 whole entry): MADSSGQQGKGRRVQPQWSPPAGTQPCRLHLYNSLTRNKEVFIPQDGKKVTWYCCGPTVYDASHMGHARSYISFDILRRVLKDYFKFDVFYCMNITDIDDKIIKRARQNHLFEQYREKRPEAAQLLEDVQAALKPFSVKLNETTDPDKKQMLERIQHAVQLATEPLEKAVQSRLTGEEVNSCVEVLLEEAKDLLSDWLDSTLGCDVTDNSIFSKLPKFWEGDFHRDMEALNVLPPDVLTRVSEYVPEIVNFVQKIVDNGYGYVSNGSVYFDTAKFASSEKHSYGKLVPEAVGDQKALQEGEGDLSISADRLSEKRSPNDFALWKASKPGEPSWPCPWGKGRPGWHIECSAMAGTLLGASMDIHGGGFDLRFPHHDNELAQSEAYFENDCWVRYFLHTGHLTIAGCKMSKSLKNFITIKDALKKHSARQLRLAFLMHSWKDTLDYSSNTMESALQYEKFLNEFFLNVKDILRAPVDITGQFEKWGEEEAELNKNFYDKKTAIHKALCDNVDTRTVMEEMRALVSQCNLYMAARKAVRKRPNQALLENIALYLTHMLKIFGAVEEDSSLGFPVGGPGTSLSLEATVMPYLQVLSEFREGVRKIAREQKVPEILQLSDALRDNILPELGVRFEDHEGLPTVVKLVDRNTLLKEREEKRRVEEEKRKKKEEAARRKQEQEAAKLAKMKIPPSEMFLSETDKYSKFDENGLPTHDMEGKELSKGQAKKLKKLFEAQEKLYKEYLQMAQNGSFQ

[3] = biological target: Dual specificity tyrosine-phosphorylation-regulated kinase 1A (Homo sapiens, UniProt Q13627)
[4] = biological target: T3, Mitogen-activated protein kinase kinase kinase kinase 2 (Homo sapiens, UniProt Q12851)
T3 sequence (Q12851 whole entry): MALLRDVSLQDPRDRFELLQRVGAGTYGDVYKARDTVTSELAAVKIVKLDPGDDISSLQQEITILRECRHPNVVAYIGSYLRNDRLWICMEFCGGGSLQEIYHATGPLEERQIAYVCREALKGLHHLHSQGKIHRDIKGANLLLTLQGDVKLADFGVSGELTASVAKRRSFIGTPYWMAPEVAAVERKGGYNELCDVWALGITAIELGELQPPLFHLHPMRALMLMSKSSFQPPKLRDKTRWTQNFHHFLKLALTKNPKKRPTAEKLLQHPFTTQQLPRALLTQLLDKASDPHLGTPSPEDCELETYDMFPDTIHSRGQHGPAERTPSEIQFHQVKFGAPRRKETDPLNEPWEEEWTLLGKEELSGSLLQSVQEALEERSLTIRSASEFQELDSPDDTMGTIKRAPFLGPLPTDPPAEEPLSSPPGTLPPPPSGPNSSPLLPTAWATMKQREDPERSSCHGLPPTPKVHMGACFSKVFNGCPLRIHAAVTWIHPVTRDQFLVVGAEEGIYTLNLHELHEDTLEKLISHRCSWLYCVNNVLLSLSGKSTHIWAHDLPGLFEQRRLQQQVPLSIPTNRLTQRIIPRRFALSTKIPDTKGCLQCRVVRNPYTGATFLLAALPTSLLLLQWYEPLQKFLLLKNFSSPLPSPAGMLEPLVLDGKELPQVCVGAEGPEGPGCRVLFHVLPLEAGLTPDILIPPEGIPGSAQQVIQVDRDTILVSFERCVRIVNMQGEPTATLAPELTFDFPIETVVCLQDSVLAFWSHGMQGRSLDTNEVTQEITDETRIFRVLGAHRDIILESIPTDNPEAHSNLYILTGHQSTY

[5] = biological target: 5'-AMP-activated protein kinase catalytic subunit alpha-1 (Homo sapiens, UniProt Q13131)
Chain of 5'-AMP-activated protein kinase catalytic subunit alpha-1 (Q13131 whole entry): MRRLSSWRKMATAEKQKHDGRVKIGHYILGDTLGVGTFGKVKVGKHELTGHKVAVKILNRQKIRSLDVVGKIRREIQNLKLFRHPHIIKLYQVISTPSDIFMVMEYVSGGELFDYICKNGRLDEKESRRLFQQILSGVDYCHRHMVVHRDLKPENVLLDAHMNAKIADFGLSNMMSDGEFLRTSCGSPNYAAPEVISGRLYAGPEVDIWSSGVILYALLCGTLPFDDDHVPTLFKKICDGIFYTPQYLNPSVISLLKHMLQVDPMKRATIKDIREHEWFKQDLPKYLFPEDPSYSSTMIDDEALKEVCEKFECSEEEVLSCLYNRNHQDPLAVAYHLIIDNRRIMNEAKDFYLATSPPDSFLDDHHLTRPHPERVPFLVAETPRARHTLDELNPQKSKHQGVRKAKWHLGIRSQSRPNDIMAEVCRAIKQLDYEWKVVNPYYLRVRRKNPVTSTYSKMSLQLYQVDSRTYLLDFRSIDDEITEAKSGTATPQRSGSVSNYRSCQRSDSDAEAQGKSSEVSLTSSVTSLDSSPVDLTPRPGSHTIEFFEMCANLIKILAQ

[6] = biological target: cAMP-dependent protein kinase catalytic subunit beta (Homo sapiens, UniProt P22694)
TGF-beta receptor type-1 = biological target: T4, TGF-beta receptor type-1 (Homo sapiens, UniProt P36897)
T4 sequence (P36897 whole entry): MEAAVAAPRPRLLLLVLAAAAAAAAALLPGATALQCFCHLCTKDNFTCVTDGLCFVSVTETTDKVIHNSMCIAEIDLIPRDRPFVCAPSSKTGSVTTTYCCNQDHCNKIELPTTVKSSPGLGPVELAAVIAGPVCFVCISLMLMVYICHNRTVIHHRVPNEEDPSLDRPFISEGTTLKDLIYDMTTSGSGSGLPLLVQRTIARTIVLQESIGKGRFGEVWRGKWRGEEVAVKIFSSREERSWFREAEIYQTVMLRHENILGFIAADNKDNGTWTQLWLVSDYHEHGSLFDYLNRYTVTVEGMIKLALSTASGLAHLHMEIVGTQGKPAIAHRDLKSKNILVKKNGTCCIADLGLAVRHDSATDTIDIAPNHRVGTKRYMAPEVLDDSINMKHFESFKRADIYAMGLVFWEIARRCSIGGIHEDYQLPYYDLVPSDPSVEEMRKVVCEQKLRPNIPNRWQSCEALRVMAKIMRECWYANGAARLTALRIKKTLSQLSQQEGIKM
Also: in the data inactive means no Kd found up to 30 µM.

SMILES	Kd [1]	Kd [2]	Kd [3]	Kd [4]	Kd [5]	Kd [6]	Kd (TGF-beta receptor type-1)
COc1cc(Nc2ncc(F)c(Nc3ccc4c(n3)N(COP(=O)(O)O)C(=O)C(C)(C)O4)n2)cc(OC)c1OC [FOSTAMATINIB]	> 30 µM (inactive)	> 30 µM (inactive)	> 30 µM (inactive)	> 30 µM (inactive)	> 30 µM (inactive)	> 30 µM (inactive)	> 30 µM (inactive)
C[C@@H]1COC(Nc2ccc3ncnc(Nc4ccc(OCc5nccs5)c(Cl)c4)c3c2)=N1 [VARLITINIB]	> 30 µM (inactive)	> 30 µM (inactive)	> 30 µM (inactive)	> 30 µM (inactive)	> 30 µM (inactive)	> 30 µM (inactive)	> 30 µM (inactive)
CNC(=O)c1ccc(Nc2ncc(C(F)(F)F)c(NCc3nccnc3N(C)S(C)(=O)=O)n2)cc1 [DEFACTINIB]	> 30 µM (inactive)	> 30 µM (inactive)	9.12 µM (active)	> 30 µM (inactive)	> 30 µM (inactive)	> 30 µM (inactive)	> 30 µM (inactive)
Cc1c(Cn2c(C)nc3c(C(=O)O)cc(N4CCOCC4)cc32)cccc1C(F)(F)F [GSK-2636771]	> 30 µM (inactive)	> 30 µM (inactive)	> 30 µM (inactive)	> 30 µM (inactive)	> 30 µM (inactive)	> 30 µM (inactive)	> 30 µM (inactive)
Cn1cc(-c2[nH]c3cc(NC(=O)[C@H](N)C4CCCCC4)cc4c3c2C=NNC4=O)cn1	> 30 µM (inactive)	> 30 µM (inactive)	> 30 µM (inactive)	> 30 µM (inactive)	1.32 µM (active)	> 30 µM (inactive)	> 30 µM (inactive)
NC(=O)c1ccc(N(C(N)=O)c2c(F)cccc2F)nc1-c1ccc(F)cc1F [VX-702]	> 30 µM (inactive)	> 30 µM (inactive)	> 30 µM (inactive)	> 30 µM (inactive)	> 30 µM (inactive)	> 30 µM (inactive)	> 30 µM (inactive)
COc1cc2ncnc(Nc3ccc(F)c(Cl)c3)c2cc1NC(=O)/C=C/CN1CCCCC1 [DACOMITINIB ANHYDROUS]	> 30 µM (inactive)	> 30 µM (inactive)	> 30 µM (inactive)	> 30 µM (inactive)	> 30 µM (inactive)	> 30 µM (inactive)	> 30 µM (inactive)
S=C(NCc1ccc2c(c1)OCO2)N1CCN(c2ncnc3c2oc2ccccc23)CC1 [AMUVATINIB]	> 30 µM (inactive)	> 30 µM (inactive)	> 30 µM (inactive)	> 30 µM (inactive)	> 30 µM (inactive)	> 30 µM (inactive)	> 30 µM (inactive)
COc1cc(F)c(F)c(Nc2ccc(I)cc2F)c1NS(=O)(=O)C1(C[C@H](O)CO)CC1 [REFAMETINIB]	> 30 µM (inactive)	> 30 µM (inactive)	> 30 µM (inactive)	> 30 µM (inactive)	> 30 µM (inactive)	> 30 µM (inactive)	> 30 µM (inactive)
CCc1nc(C(N)=O)c(Nc2ccc(N3CCC(N4CCN(C)CC4)CC3)c(OC)c2)nc1NC1CCOCC1 [GILTERITINIB]	0.208 µM	> 30 µM (inactive)	> 30 µM (inactive)	0.244 µM (active)	> 30 µM (inactive)	> 30 µM (inactive)	> 30 µM (inactive)
C#Cc1cccc(Nc2ncnc3cc4c(cc23)OCCOCCOCCO4)c1 [ICOTINIB]	> 30 µM (inactive)	0.652 µM (active)	> 30 µM (inactive)	> 30 µM (inactive)	> 30 µM (inactive)	> 30 µM (inactive)	> 30 µM (inactive)
COc1cc2ncnc(Nc3ccc(O)cc3)c2cc1OC [WHI-P131]	> 30 µM (inactive)	> 30 µM (inactive)	> 30 µM (inactive)	> 30 µM (inactive)	> 30 µM (inactive)	> 30 µM (inactive)	> 30 µM (inactive)
FC(F)(F)c1ccc(CNc2ccc(Cc3c[nH]c4ncc(Cl)cc34)cn2)cn1 [PEXIDARTINIB]	> 30 µM (inactive)	> 30 µM (inactive)	> 30 µM (inactive)	> 30 µM (inactive)	> 30 µM (inactive)	> 30 µM (inactive)	> 30 µM (inactive)
COc1ccc2c(OCc3nnc4ccc(-c5ccccc5)nn34)ccnc2c1 [AMG-208]	> 30 µM (inactive)	> 30 µM (inactive)	> 30 µM (inactive)	> 30 µM (inactive)	> 30 µM (inactive)	> 30 µM (inactive)	> 30 µM (inactive)
CC1(COc2ccc3c(c2)ncn3-c2ccc3cccc(N4CCC(N)CC4)c3n2)COC1 [CRENOLANIB]	> 30 µM (inactive)	> 30 µM (inactive)	4.97 µM (active)	> 30 µM (inactive)	1.25 µM (active)	> 30 µM (inactive)	> 30 µM (inactive)
COc1cccc2cc(-c3nc([C@H]4CC[C@H](C(=O)O)CC4)n4ncnc(N)c34)[nH]c12 [OSI-027]	> 30 µM (inactive)	> 30 µM (inactive)	> 30 µM (inactive)	> 30 µM (inactive)	> 30 µM (inactive)	> 30 µM (inactive)	0.78 µM (active)
O=C(NC[C@H](O)CO)c1ccncc1Nc1ccc(I)cc1F [PIMASERTIB]	> 30 µM (inactive)	> 30 µM (inactive)	> 30 µM (inactive)	> 30 µM (inactive)	> 30 µM (inactive)	> 30 µM (inactive)	> 30 µM (inactive)
CN1CCN(c2nc(C3=C(c4c[nH]c5ccccc45)C(=O)NC3=O)c3ccccc3n2)CC1 [SOTRASTAURIN]	> 30 µM (inactive)	> 30 µM (inactive)	> 30 µM (inactive)	> 30 µM (inactive)	> 30 µM (inactive)	> 30 µM (inactive)	> 30 µM (inactive)
